Assay in all cases: In vitro antiproliferative activity, resazurin cell viability
Common to all, as to format: cell-based

Test [1] has as its system A549. Particulars: Homo sapiens, non-small cell lung cancer, 72 h of treatment, mean ± SEM. As for the experimental part: (§1) To test the newly synthesized compounds, various human cell lines were employed. HD‐MB03 cells were purchased from DSMZ (Braunschweig, Germany), while A549, MDA‐MB‐231, RPMI‐8420, SU‐DHL‐8, TOLEDO, VL51, SU‐DHL‐1, SU‐DHL‐18, and KM‐H2 were obtained from ATCC (Manassas, VA, USA). Cells were cultured in DMEM (for MDA‐MB‐231 and A549) or RPMI‐1640 (for RPMI‐8420, SU‐DHL‐8, TOLEDO, VL51, SU‐DHL‐1, SU‐DHL‐18, KM‐H2, and HD‐MB03) media (Gibco, Milan, Italy). Both media were supplemented with 115 units/mL penicillin G (Gibco, Milan, Italy), 115 µg/mL streptomycin (Invitrogen, Milan, Italy), and 10% fetal bovine serum (Invitrogen, Milan, Italy). Peripheral blood mononuclear cells (PBMCs) were isolated from healthy donors as previously described. For cytotoxicity assays, PBMCs were resuspended at 5 × 10⁵ cells/mL in complete RPMI medium with or without 2.5 µg/mL phytohemagglutinin (PHA) (Irvine Scientific) to stimulate T‐cell activation and proliferation. All cell lines were maintained at 37°C in a humidified atmosphere containing 5% CO₂. All compounds were dissolved in DMSO at a 10 mM stock concentration. For dose–response assays, cells were seeded in 96‐well plates at densities optimized for each cell line: HD‐MB03 at 10,000 cells/well, A549 at 4000 cells/well, and MDA‐MB‐231 at 7000 cells/well. All other cell lines were seeded at 20,000 cells/well in a final volume of 100 µL per well. After 24 h, cells were treated with a 6‐point serial dilution of compounds starting from 10 µM, in triplicate for statistical analysis. Seventy‐2 h posttreatment, 10 µL of resazurin solution (100 µg/mL) was added to each well, and cells were incubated for an additional 3–6 h. Fluorescence was measured using a Spark 10 M microplate reader (Tecan Group Ltd., Männedorf, Switzerland) with excitation at 535 nm and emission at 600 nm. The IC₅₀ was defined as the concentration of compound required to inhibit cell proliferation by 50% compared to cells treated with the highest DMSO concentration.
(§2) To test the newly synthesized compounds, various human cell lines were employed. HD-MB03 cells were purchased from DSMZ (Braunschweig, Germany), while A549, MDA-MB-231, RPMI-8420, SU-DHL-8, TOLEDO, VL51, SU-DHL-1, SU-DHL-18, and KM-H2 were obtained from ATCC (Manassas, VA, USA). Cells were cultured in DMEM (for MDA-MB-231 and A549) or RPMI-1640 (for RPMI-8420, SU-DHL-8, TOLEDO, VL51, SU-DHL-1, SU-DHL-18, KM-H2, and HD-MB03) media (Gibco, Milan, Italy). Both media were supplemented with 115 units/mL penicillin G (Gibco, Milan, Italy), 115 µg/mL streptomycin (Invitrogen, Milan, Italy), and 10% fetal bovine serum (Invitrogen, Milan, Italy). Peripheral blood mononuclear cells (PBMCs) were isolated from healthy donors as previously described. ^[1] For cytotoxicity assays, PBMCs were resuspended at 5 × 10⁵ cells/mL in complete RPMI medium with or without 2.5 µg/mL phytohemagglutinin (PHA) (Irvine Scientific) to stimulate T cell activation and proliferation. All cell lines were maintained at 37 °C in a humidified atmosphere containing 5% CO₂. All compounds were dissolved in DMSO at a 10 mM stock concentration. For dose–response assays, cells were seeded in 96-well plates at densities optimized for each cell line: HD-MB03 at 10,000 cells/well, A549 at 4,000 cells/well, and MDA-MB-231 at 7,000 cells/well. All other cell lines were seeded at 20,000 cells/well in a final volume of 100 µL per well. After 24 hours, cells were treated with a 6-point serial dilution of compounds starting from 10 µM, in triplicate for statistical analysis. Seventy-two hours post-treatment, 10 µL of resazurin solution (100 µg/mL) was added to each well, and cells were incubated for an additional 3–6 hours. Fluorescence was measured using a Spark 10M microplate reader (Tecan Group Ltd., Männedorf, Switzerland) with excitation at 535 nm and emission at 600 nm. […]

The test system of test [2] is HD-MB03. As to conditions: Homo sapiens, medulloblastoma cells, 72 h of treatment, mean ± SEM, at least three experiments. As for the experimental part:
as §1, §2

For test [3], the system named is MDA-MB-231. Particulars: Homo sapiens, triple-negative breast cancer, 72 h of treatment, mean ± SEM. The protocol: as §1, §2
Test [4] deals with RPMI-8402. Particulars: Homo sapiens, T-lymphoblastic leukemia cells, 72 h of treatment, mean ± SEM. As for the experimental part: as §1, §2
Test [5] concerns SU-DHL-8. Particulars: Homo sapiens, B lymphocyte, large cell lymphoma, 72 h of treatment, mean ± SEM. As for the experimental part: as §1, §2

As for `COc1cc(/C=C/c2cc(C(=O)Nc3ccc([N+](=O)[O-])c(C(F)(F)F)c3)c3ccccc3n2)cc(OC)c1OC` [4t, (E)-N-(4-nitro-3-(trifluoromethyl)phenyl)-2-(3,4,5-trimethoxystyryl)quinoline-4-carboxamide], the IC50 in test [1], in test [2], in test [3], in test [4] and in test [5] was > 10 µM each time.
Regarding `O=C(Nc1cccc(Cl)c1)c1cc(/C=C/c2ccccc2)nc2ccccc12` [4f, (E)-N-(3-chlorophenyl)-2-styrylquinoline-4-carboxamide], the concentration for half-maximal inhibition (IC50) in test [1] is > 10 µM; in test [2] it was > 10 µM; in test [3] it was > 10 µM; in test [4] it was > 10 µM; in test [5], 8.27 ± 0.72 µM.
Regarding `Cc1cccc(NC(=O)c2cc(/C=C/c3ccccc3)nc3ccccc23)c1` [4b, (E)-2-styryl-N-(m-tolyl)quinoline-4-carboxamide], the half-inhibitory concentration (IC50) is > 10 µM in test [1]; > 10 µM in test [2]; > 10 µM in test [3]; > 10 µM in test [4]; 5.05 ± 0.58 µM in test [5].
On to `COc1cc(/C=C/c2cc(C(=O)Nc3ccc(Cl)cc3)c3ccccc3n2)cc(OC)c1OC` [4q, (E)-N-(4-chlorophenyl)-2-(3,4,5-trimethoxystyryl)quinoline-4-carboxamide], for which the IC50 in test [1] was > 10 µM; in test [2], > 10 µM; in test [3], > 10 µM; in test [4], > 10 µM; in test [5] it was 4.61 ± 0.84 µM.
As to `COc1cc(/C=C/c2cc(C(=O)Nc3ccc(C(F)(F)F)cc3)c3ccccc3n2)cc(OC)c1OC` [4r, (E)-N-(4-(trifluoromethyl)phenyl)-2-(3,4,5-trimethoxystyryl)quinoline-4-carboxamide], the half-maximal inhibitory concentration (IC50) in test [1] is > 10 µM; in test [2], > 10 µM; in test [3], > 10 µM; in test [4] it was > 10 µM; in test [5] it was 2.13 ± 0.08 µM.
Take `COc1cc(/C=C/c2cc(C(=O)Nc3cccc(C)c3)c3ccccc3n2)cc(OC)c1OC` [4l, (E)-N-(m-tolyl)-2-(3,4,5-trimethoxystyryl)quinoline-4-carboxamide]: the IC50 in test [1] was 9.34 ± 0.18 µM; in test [2], > 10 µM; in test [3], 5.95 ± 0.66 µM; in test [4] it was 3.75 ± 0.18 µM; in test [5], 2.94 ± 0.08 µM.
Regarding `COc1cc(/C=C/c2cc(C(=O)Nc3ccccc3)c3ccccc3n2)cc(OC)c1OC` [4k, (E)-N-phenyl-2-(3,4,5-trimethoxystyryl)quinoline-4-carboxamide], the IC50 was > 10 µM in test [1]; > 10 µM in test [2]; > 10 µM in test [3]; > 10 µM in test [4]; 5.33 ± 0.52 µM in test [5].
For the compound `O=C(Nc1ccc(Cl)cc1)c1cc(/C=C/c2ccc(Cl)c(Cl)c2)nc2ccccc12` [4ag, (E)-N-(4-chlorophenyl)-2-(3,4-dichlorostyryl)quinoline-4-carboxamide], the 50% inhibitory concentration (IC50) in test [1] was found to be 7.71 ± 0.56 µM; in test [2], 6.93 ± 0.06 µM; in test [3], 5.52 ± 0.22 µM; in test [4], 6.42 ± 0.43 µM; in test [5], 3.49 ± 0.11 µM.
Taken in the same sequence, the figures for `Cc1cccc(/C=C/c2cc(C(=O)Nc3ccc([N+](=O)[O-])c(C(F)(F)F)c3)c3ccccc3n2)c1` [4u, (E)-2-(3-methylstyryl)-N-(4-nitro-3-(trifluoromethyl)phenyl)quinoline-4-carboxamide] were > 10 µM, > 10 µM, > 10 µM, > 10 µM and > 10 µM.
The like results for `COc1cc(/C=C/c2cc(C(=O)Nc3cc(OC)c(OC)c(OC)c3)c3ccccc3n2)cc(OC)c1OC` [4o, (E)-N-(3,4,5-trimethoxyphenyl)-2-(3,4,5-trimethoxystyryl)quinoline-4-carboxamide] were, in that order, > 10 µM, > 10 µM, 5.95 ± 0.89 µM, 4.55 ± 0.42 µM and 2.09 ± 0.14 µM.
Taken in the same sequence, the figures for `Cc1cccc(C)c1NC(=O)c1cc(/C=C/c2ccccc2)nc2ccccc12` [4d, (E)-N-(2,6-dimethylphenyl)-2-styrylquinoline-4-carboxamide] were > 10 µM, > 10 µM, 5.6 ± 0.79 µM, > 10 µM and 6.53 ± 1.49 µM.
For the compound `O=C(Nc1ccc(C(F)(F)F)cc1)c1cc(/C=C/c2cccc([N+](=O)[O-])c2)nc2ccccc12` [4ad, (E)-2-(3-nitrostyryl)-N-(4-(trifluoromethyl)phenyl)quinoline-4-carboxamide], the concentration for half-maximal inhibition (IC50) in test [1], in test [2], in test [3], in test [4] and in test [5] was > 10 µM each time.
For the compound `O=C(Nc1ccc(C(F)(F)F)cc1)c1cc(/C=C/c2ccc(Br)cc2)nc2ccccc12` [4aa, (E)-2-(4-bromostyryl)-N-(4-(trifluoromethyl)phenyl)quinoline-4-carboxamide], the IC50 in test [1], in test [2], in test [3], in test [4] and in test [5] was > 10 µM in each case.
Regarding `COc1cc(/C=C/c2cc(C(=O)Nc3cccc(Cl)c3)c3ccccc3n2)cc(OC)c1OC` [4p, (E)-N-(3-chlorophenyl)-2-(3,4,5-trimethoxystyryl)quinoline-4-carboxamide], the half-inhibitory concentration (IC50) in test [1] is > 10 µM; in test [2], 8.31 ± 0.64 µM; in test [3], 5.7 ± 0.1 µM; in test [4], 9.06 ± 0.59 µM; in test [5] it was 4.46 ± 0.37 µM.
Taken in the same sequence, the figures for `O=C(Nc1ccc(Cl)cc1)c1cc(/C=C/c2ccccc2)nc2ccccc12` [4g, (E)-N-(4-chlorophenyl)-2-styrylquinoline-4-carboxamide] were > 10 µM, > 10 µM, > 10 µM, 6.31 ± 0.36 µM and 7.8 ± 1.3 µM.
Regarding `COc1cc(NC(=O)c2cc(/C=C/c3ccccc3)nc3ccccc23)cc(OC)c1OC` [4e, (E)-2-styryl-N-(3,4,5-trimethoxyphenyl)quinoline-4-carboxamide], the 50% inhibitory concentration (IC50) in test [1] is > 10 µM; in test [2], 7.1 ± 1.15 µM; in test [3] it was > 10 µM; in test [4] it was > 10 µM; in test [5], 6.61 ± 0.76 µM.
Regarding `O=C(Nc1ccc([N+](=O)[O-])c(C(F)(F)F)c1)c1cc(/C=C/c2ccc(Cl)c(Cl)c2)nc2ccccc12` [4x, (E)-2-(3,4-dichlorostyryl)-N-(4-nitro-3-(trifluoromethyl)phenyl)quinoline-4-carboxamide], the half-maximal inhibitory concentration (IC50) in test [1], in test [2], in test [3], in test [4] and in test [5] was > 10 µM throughout.

Values taken from PMC12645083, “Microwave‐Enhanced Synthesis of 2‐Styrylquinoline‐4‐Carboxamides With Promising Anti‐Lymphoma Activity” (Archiv Der Pharmazie, 2025).
